{"source": "paper PMC9011347", "about": "“Small-Molecule Inhibitors Targeting Lipolysis in Human Adipocytes” (Journal of the American Chemical Society, 2022)", "test_system": "HepG2 cells", "experiment": "Untargeted lipidomic analysis (UHPLC-MS, OPLS-DA)", "type": "cell-based, human", "conditions": "40 μM, 3 h, versus DMSO", "procedure": "Figure 2 Development and characterization of the human ATGL inhibitor NG-497. (a) Structure and IC50 values of human ATGL inhibitors. (b) Dose-dependent inhibition of human ATGL by respective inhibitors. (c) ATGL activity was determined at the indicated substrate concentrations in the absence and presence of NG-497 (0.5 μM). Ki was determined by nonlinear regression analysis using GraphPad Prism. Lineweaver–Burk analysis of ATGL inhibition is shown in the inset. (d) Toxicity of NG-497 in HepG2 cells was determined after 24 h incubation at indicated concentrations. Cisplatin and DMSO were used as positive and negative controls, respectively. Cytotoxicity was determined using the Roche LDH Kit and calculated as relative LDH release compared to fully lysed cells. (e) Stability of NG-497 was analyzed via ultrahigh-performance liquid chromatography–mass spectrometry (UHPLC-MS) after incubation in human serum for 0 or 3 h at 37 °C. Atglistatin and a chemically related unstable compound were used as controls. […] NG-497 concentrations/well were determined at the indicated time points using UHPLC-MS. […] Statistical significance was determined via t test (*p < 0.05; **p < 0.01; ***p < 0.001) or ANOVA followed by Bonferroni post hoc test (^###p < 0.001). […] The detected 297 lipid species of both groups were analyzed with supervised multivariate analysis OPLS-DA and are shown as a loading plot. […]", "data": [{"smiles": "CCOc1ccc(-c2cc(OC)cc(C(=O)OC(C)C)n2)cc1", "note": "[NG-497]", "values": [{"measurement": "lipidomic changes (OPLS-DA top 25 contributing lipid species)", "value": "20 of the top 25 hits were due to an increase of TAG species, while three DAG species were decreased"}]}]}
